Patent US7655650B2, “Oxadiazine derivatives” (Syngenta Corporation, priority 1992, dated 2010)

How the values were obtained:
Format in all cases: in vivo
Heliothis virescens = test: Example B6: Activity against Heliothis virescens; details: 144 h, 400 ppm spray on young soyabean plants, 10 caterpillars in the first stage, evaluated after 6 days, read-out: percentage reduction in population and in feeding damage (% activity)
Protocol: Young soyabean plants are sprayed with an aqueous emulsion spray mixture comprising 400 ppm of active ingredient. After the spray coating has dried on, the plants are populated with 10 Heliothis virescens caterpillars in the first stage and transferred to a plastic container. The test is evaluated after 6 days. The percentage reduction in population and in feeding damage (% activity) are determined by comparing the number of dead caterpillars and the feeding damage between the treated and untreated plants.

Diabrotica balteata = test: Example B5: Activity against Diabrotica balteata; details: 144 h, 400 ppm spray on maize seedlings, 10 larvae in the second stage, evaluated after 6 days, read-out: percentage reduction in population (% activity)
Protocol: Maize seedlings are sprayed with an aqueous emulsion spray mixture comprising 400 ppm of active ingredient. After the spray coating has dried on, the seedlings are populated with 10 Diabrotica balteata larvae in the second stage and transferred to a plastic container. The test is evaluated after 6 days. The percentage reduction in population (% activity) is determined by comparing the number of dead larvae between the treated and untreated plants.

Aphis craccivora = test: Example B2: Activity against Aphis craccivora; details: 400 ppm spray on infected pea seedlings, 20° C., evaluated after 3 and 6 days, read-out: percentage reduction in population (% activity)
Protocol: (§1) Pea seedlings are infected with Aphis craccivora, subsequently sprayed with a spray mixture comprising 400 ppm of active ingredient and then incubated at 20° C. The test is evaluated after 3 and 6 days. The percentage reduction in population (% activity) is determined by comparing the number of dead aphids on the treated and untreated plants.

Nephotettix cincticeps = test: Example B10: Activity against Nephotettix cincticeps; details: 504 h, 400 ppm spray on rice plants, larvae in the 2nd and 3rd stages, evaluated after 21 days, read-out: percentage reduction in population (% activity)
Protocol: (§2) Rice plants are sprayed with an aqueous emulsion spray mixture comprising 400 ppm of active ingredient. After the spray coating has dried on, the plants are populated with larvae in the 2nd and 3rd stages. The test is evaluated after 21 days. The percentage reduction in population (% activity) is determined by comparing the number of surviving leaf hoppers on the treated and untreated, plants.

Myzus persicae = test: Example B8: Activity against Myzus persicae; details: 400 ppm spray on infected pea seedlings, 20°, evaluated after 3 and 6 days, read-out: percentage reduction in population (% activity)
Protocol: as §1, with “Myzus persicae,” for “Aphis craccivora,”, “20°.” for “20° C.”

Nilaparvata lugens = test: Example B12: Activity against Nilaparvata lugens; details: 504 h, 400 ppm spray on rice plants, larvae in the 2nd and 3rd stages, evaluated after 21 days, read-out: percentage reduction in population (% activity)
Protocol: as §2, with “populated with plant hopper larvae in” for “populated with larvae in”, “of surviving plant hoppers on” for “of surviving leaf hoppers on”, “treated and untreated plants.” for “treated and untreated, plants.”

Anthonomus grandis = test: Example B1: Activity against Anthonomus grandis; details: 72 h, 400 ppm spray on young cotton plants, 10 adult beetles, evaluated after 3 days, read-out: percentage reduction in population and percentage reduction in feeding damage (% activity)
Protocol: Young cotton plants are sprayed with an aqueous emulsion spray mixture comprising 400 ppm of active ingredient. After the spray coating has dried on, the plants are populated with 10 adult Anthonomus grandis and placed into a plastic container. 3 days later, the test is evaluated. The percentage reduction in population and the percentage reduction in feeding damage (% activity) are determined by comparing the number of dead beetles and the feeding damage between the treated and the untreated plants.

Ctenocephalides felis = test: Example B4: Activity against Ctenocephalides felis (systemic); details: 5 ppm in blood at 37°, fed through membrane, 20 adult fleas, evaluated after 24 and 48 hours, read-out: percentage reduction in population (% activity)
Protocol: Twenty adult fleas of the species Ctenocephalides felis are placed into a flat, round cage, both sides of which are covered with gauze. A container whose bottom is sealed with a Parafilm membrane is placed onto the cage. In the container there is blood which comprises 5 ppm of active ingredient and which is constantly heated at 37°. The fleas take up blood through the membrane. The test is evaluated 24 and 48 hours after setting up the experiment The percentage reduction in population (% activity) is determined by comparing the number of dead fleas when using treated and untreated blood. 24 hours after the treatment, the blood is replaced by fresh blood which has also been treated.

CN1COCN(Cc2ccc(Cl)nc2)/C1=N/[N+](=O)[O-] [Compound No. 1.2, 5-(2-Chloropyrid-5-ylmethyl)-3-methyl-4-nitroiminoperhydro-1,3,5-oxadiazine]
> 80%: inhibition at 400 ppm (Heliothis virescens) | inhibition at 400 ppm (Diabrotica balteata) | inhibition at 400 ppm (Aphis craccivora) | inhibition at 400 ppm (Nephotettix cincticeps) | inhibition at 400 ppm (Myzus persicae) | inhibition at 400 ppm (Nilaparvata lugens) | inhibition at 400 ppm (Anthonomus grandis) | inhibition at 5 ppm (Ctenocephalides felis)
